Source: PubChem BioAssay AID2060622 (Molecular Pharmacology Branch, DTP, NCI, 2025)

Test system: 242566-281-R-J2-PDC complex spheroid viability
Test: Anticancer human tumor 242566-281-R-J2-PDC patient-derived pancreatic carcinoma cell line growth inhibition [CLK]
Conditions: for IC50: curve of first compound; for viability, T/C: stronger effect = lower value
Description: A high-throughput screen of multi-cell type tumor spheroids was designed to identify active combinations of […] and targeted small molecules. Complex spheroids include a stromal component modeled by human endothelial cells (HUVEC) and fibroblasts modeled by human mesenchymal stem cells (MSCs). The concentration ranges selected for each drug and investigational agent were based upon clinically achievable concentrations if the clinical Cmax of the agent was known.
Compounds. The drugs and investigational agents: cirtuvivint (SM08502; NSC835563), CC-671 (NSC850746), vemurafenib (NSC761431), tapotoclax (NSC804041), sotorasib (NSC818433), adagrasib (NSC831453), MRTX-1133 (NSC836407), BAY2416964 (NSC825713), copanlisib (NSC816437), inavolisib (NSC800729), abemaciclib (NSC768073), osimertinib (NSC779217), entinostat (NSC756642), eltanexor (KPT-8602, NSC794443), venetoclax (NSC766270), ceralasertib (NSC777638), bortezomib (NSC756655), olaparib (NSC753686), talazoparib (NSC767125), alisertib (NSC759677), peposertib (NSC802822), gemcitabine (NSC613327), 5-fluorouracil (NSC19893), SN-38 (NSC673596), oxaliplatin (NSC266046), paclitaxel (NSC125973), and doxorubicin (NSC123127), were obtained from the National Cancer Institute (NCI) Developmental Therapeutics Program Chemical Repository. The FDA-approved anticancer drug set is available from the Developmental Therapeutics Program at https://dtp.cancer.gov/organization/dscb/obtaining/available plates.htm. […] The stock solutions were prepared in dimethyl sulfoxide (DMSO, Sigma-Aldrich, St. Louis, MO, cat. D2650), except for the platinum complexes which were prepared in saline (Quality Biological, Gaithersburg, MD, cat. 114-055-101), at 800-fold the tested concentration and stored at -70 degrees C prior to their use. All drugs and investigational agents were tested over a range starting from a high concentration at or near the clinical Cmax and decreasing in half-log increments. If the clinical Cmax for an agent had not been determined, the highest concentration tested was 10 microM.
Cell Culture. All cells were maintained in an incubator at 37 degrees C and 5% CO2 with 95% humidity. The PDC lines were cultured according to standard operating procedures established by the NCI PDMR. Briefly, all PDCs were thawed and cultured in Matrigel-coated flasks prepared with a working solution of 1X Ham's F-12 nutrient mix, without supplementation (Invitrogen, Waltham, MA, cat. 11765054), 100 U/mL penicillin-streptomycin (Invitrogen, cat. 15140122), and 2.5% Matrigel (Corning Inc., Corning, NY, cat. 354248) for the first three passages. The 947758-054-R-J2-PDC line was cultured in 6B/Colon 1A media, which includes advanced DMEM/F-12 (Thermo Fisher Scientific, cat. 12634028), 10 mM HEPES (Thermo Fisher Scientific, cat. 15630080), 1X GlutaMAX supplement (Thermo Fisher Scientific, cat. 35050061), 0.1 mg/mL primocin (InvivoGen, cat. ant-pm-2), 10% defined fetal bovine serum, heat inactivated (HyClone Laboratories Inc., cat. SH30070.03HI), 1.25 mM N-Acetyl-L-cysteine (Sigma-Aldrich, cat. A9165), 10 mM nicotinamide (Sigma-Aldrich, cat. N0636), 1X B-27 supplement (Thermo Fisher Scientific, cat. 17504044), 1X N-2 supplement (Thermo Fisher Scientific, cat. 17502048), and 10 microM Y-27632 dihydrochloride (Tocris Bioscience, cat. 1254). The 876862-298-R-J1-PDC was cultured in 6E media, which includes all 6B/Colon 1A media components plus 50% L-WRN conditioned media (ATCC, cat. CRL-3276), 50 ng/mL recombinant human EGF recombinant protein (hEGF; Thermo Fisher Scientific, cat. PHG0311), 10 ng/mL recombinant human fibroblast growth factor 10 (hGFG-10; PeproTech, cat. 100-26), 1 ng/mL recombinant human fibroblast growth factor 2 (hFGF-2; PeproTech, cat. 100-18B), and 1 µM prostaglandin E2 (PGE2; Tocris, cat. 2296). The 227483-062-R1-J1-PDC line was cultured in Panc media, containing all 6E components except hFGF-2, with the addition of 500 nM SB-431542 (Selleckchem, cat. S1067) and 10 nM gastrin (Tocris, cat. 3006). […]

[1] = second compound 0.0316 µM, first compound 0.0316 µM
[2] = second compound 0.0316 µM, first compound 0.1 µM
[3] = second compound 0.0316 µM, first compound 0.316 µM
[4] = second compound 0.0316 µM, first compound 1 µM
[5] = second compound 0.0316 µM, first compound 3.16 µM
[6] = second compound 0.0316 µM, first compound 10 µM
[7] = second compound 0.1 µM, first compound 0.0316 µM
[8] = second compound 0.1 µM, first compound 0.1 µM
[9] = second compound 0.1 µM, first compound 0.316 µM
[10] = second compound 0.1 µM, first compound 1 µM
[11] = second compound 0.1 µM, first compound 3.16 µM
[12] = second compound 0.1 µM, first compound 10 µM
[13] = second compound 0.316 µM, first compound 0.0316 µM
[14] = second compound 0.316 µM, first compound 0.1 µM
[15] = second compound 0.316 µM, first compound 0.316 µM
[16] = second compound 0.316 µM, first compound 1 µM
[17] = second compound 0.316 µM, first compound 3.16 µM
[18] = second compound 0.316 µM, first compound 10 µM
[19] = second compound 1 µM, first compound 0.0316 µM
[20] = second compound 1 µM, first compound 0.1 µM
[21] = second compound 1 µM, first compound 0.316 µM
[22] = second compound 1 µM, first compound 1 µM
[23] = second compound 1 µM, first compound 3.16 µM
[24] = second compound 1 µM, first compound 10 µM
[25] = second compound 3.16 µM, first compound 0.0316 µM
[26] = second compound 3.16 µM, first compound 0.1 µM
[27] = second compound 3.16 µM, first compound 0.316 µM
[28] = second compound 3.16 µM, first compound 1 µM
[29] = second compound 3.16 µM, first compound 3.16 µM
[30] = second compound 3.16 µM, first compound 10 µM
[31] = second compound 10 µM, first compound 0.0316 µM
[32] = second compound 10 µM, first compound 0.1 µM
[33] = second compound 10 µM, first compound 0.316 µM
[34] = second compound 10 µM, first compound 1 µM
[35] = second compound 10 µM, first compound 3.16 µM
[36] = second compound 10 µM, first compound 10 µM
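Further: spheroids exposed to compounds for 7 days before readout.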
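Wherever viability, T/C is given: 100% = DMSO vehicle control wells.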

For `C#Cc1c(F)ccc2cc(O)cc(-c3ncc4c(N5CC6CCC(C5)N6)nc(OCC56CCCN5CC(F)C6)nc4c3F)c12` (centres undefined) + CN1CCN(c2cc(C(=O)Nc3cc4cc(-c5cnn(C)c5)ccc4cn3)ccn2)CC1, the IC50 (second compound 0.0316 µM) was 84.6 nM, the IC50 (second compound 0.1 µM) was 65.3 nM and the IC50 (second compound 0.316 µM) was < 31.6 nM. For the same compound, the IC50 (second compound 1 µM) was < 31.6 nM, the IC50 (second compound 3.16 µM) was < 31.6 nM and the IC50 (second compound 10 µM) was < 31.6 nM. The viability, T/C [1] was 63.9%, the viability, T/C [2] was 47.5% and the viability, T/C [3] was 34%. The viability, T/C [4] was 29.4%, the viability, T/C [5] was 23.9% and the viability, T/C [6] was 17.1%. It also gave a viability, T/C [7] of 61.3%, a viability, T/C [8] of 42.9% and a viability, T/C [9] of 31.1%. It also gave a viability, T/C [10] of 19.9%, a viability, T/C [11] of 18.5% and a viability, T/C [12] of 15.5%. It also gave a viability, T/C [13] of 18.4%, a viability, T/C [14] of 13.2% and a viability, T/C [15] of 12.2%. The viability, T/C [16] was 10.6%, the viability, T/C [17] was 7.18% and the viability, T/C [18] was 3.44%. For the same compound, the viability, T/C [19] was 1.87%, the viability, T/C [20] was 1.39% and the viability, T/C [21] was 1.09%. The viability, T/C [22] was 1.22%, the viability, T/C [23] was 1.43% and the viability, T/C [24] was 1.26%. For the same compound, the viability, T/C [25] was 2.9%, the viability, T/C [26] was 2.24% and the viability, T/C [27] was 2.74%. It also gave a viability, T/C [28] of 2.35%, a viability, T/C [29] of 2.06% and a viability, T/C [30] of 1.51%. The viability, T/C [31] was 1.01%, the viability, T/C [32] was 0.76% and the viability, T/C [33] was 0.69%. The viability, T/C [34] was 0.78%, the viability, T/C [35] was 0.71% and the viability, T/C [36] was 0.34%.

`C=C(F)C(=O)N1CCN(c2nc(OCC3CCCN3C)nc3c2CCN(c2cccc4cccc(Cl)c24)C3)CC1CC#N` (centres undefined) + CN1CCN(c2cc(C(=O)Nc3cc4cc(-c5cnn(C)c5)ccc4cn3)ccn2)CC1 was tested, and the IC50 (second compound 0.0316 µM) was 4990 nM, the IC50 (second compound 0.1 µM) was 4260 nM and the IC50 (second compound 0.316 µM) was < 31.6 nM. For the same compound, the IC50 (second compound 1 µM) was < 31.6 nM, the IC50 (second compound 3.16 µM) was < 31.6 nM and the IC50 (second compound 10 µM) was < 31.6 nM. For the same compound, the viability, T/C [1] was 84.6%, the viability, T/C [2] was 115% and the viability, T/C [3] was 104%. It also gave a viability, T/C [4] of 114%, a viability, T/C [5] of 82.7% and a viability, T/C [6] of 0.15%. The viability, T/C [7] was 103%, the viability, T/C [8] was 95.9% and the viability, T/C [9] was 90.9%. For the same compound, the viability, T/C [10] was 90.2%, the viability, T/C [11] was 67.7% and the viability, T/C [12] was 0.87%. For the same compound, the viability, T/C [13] was 42.9%, the viability, T/C [14] was 38.7% and the viability, T/C [15] was 50.4%. It also gave a viability, T/C [16] of 41.3%, a viability, T/C [17] of 25.2% and a viability, T/C [18] of 0.12%. For the same compound, the viability, T/C [19] was 4.94%, the viability, T/C [20] was 4.71% and the viability, T/C [21] was 4.65%. It also gave a viability, T/C [22] of 4.68%, a viability, T/C [23] of 3.14% and a viability, T/C [24] of 0.13%. For the same compound, the viability, T/C [25] was 7.96%, the viability, T/C [26] was 8.51% and the viability, T/C [27] was 7.38%. The viability, T/C [28] was 6.75%, the viability, T/C [29] was 4.99% and the viability, T/C [30] was 0.12%. It also gave a viability, T/C [31] of 2.22%, a viability, T/C [32] of 2.75% and a viability, T/C [33] of 2.19%. The viability, T/C [34] was 1.43%, the viability, T/C [35] was 0.37% and the viability, T/C [36] was 0.24%.
